Source: patent US20090170812A1, “Transcription factor modulating compounds and methods of use thereof” (priority 2006, published 2009)
pEC50: −log10 of the molar value.

Legend:
LcrF (VirF) = LcrF (VirF) (Yersinia pestis, UniProt P28808); test: biochemical; type: binding, Y. pseudotuberculosis
ExsA = biological target: T1, ExsA (Pseudomonas aeruginosa, UniProt P26993); test: In vitro activity of Mar inhibitors against ExsA: cell-free DNA binding assay; conditions: purified ExsA from P. aeruginosa, inhibition of DNA binding in vitro
T1 construct: made in house
T1 sequence (P26993 1-278): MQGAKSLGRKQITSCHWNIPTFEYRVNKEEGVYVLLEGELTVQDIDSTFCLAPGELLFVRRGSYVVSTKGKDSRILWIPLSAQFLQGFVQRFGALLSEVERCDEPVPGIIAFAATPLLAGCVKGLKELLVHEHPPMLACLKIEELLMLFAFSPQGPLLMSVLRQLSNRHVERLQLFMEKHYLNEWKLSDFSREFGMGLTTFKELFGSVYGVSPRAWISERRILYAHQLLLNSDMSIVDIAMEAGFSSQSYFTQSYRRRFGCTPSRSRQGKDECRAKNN

[1] = tested on: Yersinia pseudotuberculosis
P. aeruginosa = test: Whole cell assay: cytotoxicity of P. aeruginosa toward J774 cells (CytoTox 96, LDH release); conditions: percent cytotoxicity of treated P. aeruginosa toward J774 cells

Chain of LcrF (VirF) (P28808 whole entry, looked up): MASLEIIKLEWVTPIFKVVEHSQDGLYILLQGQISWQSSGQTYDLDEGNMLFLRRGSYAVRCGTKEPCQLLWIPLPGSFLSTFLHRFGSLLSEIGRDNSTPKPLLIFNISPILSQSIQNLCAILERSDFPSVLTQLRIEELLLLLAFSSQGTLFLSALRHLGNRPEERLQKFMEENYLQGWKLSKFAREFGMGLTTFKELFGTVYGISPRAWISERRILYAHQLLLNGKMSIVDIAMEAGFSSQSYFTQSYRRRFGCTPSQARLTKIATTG

Compound | pEC50 (LcrF (VirF)) | pEC50 (ExsA) | Cytotoxicity at 50 μg/mL Yersinia [1] | Cytotoxicity at 50 μg/mL Pseudomonas (P. aeruginosa)
O=C(/C=C/c1ccc(F)cc1F)Nc1ccc(-c2nc3ccc([N+](=O)[O-])cc3n2O)nc1 [AP] | > 5.00 | > 5.00 | * (key: *: percent cytotoxicity above 75% at 50 μg/mL; **: cytotoxicities below 75% at 50 μg/mL) | * (percent cytotoxicities above 75% at 50 mg/mL)
CC(=O)c1ccc(C(=O)Nc2ccc(-c3nc4ccc(C#N)cc4n3O)cc2)cc1 [Compound C] | < 4.60 | > 5.00 | ** (key: *: percent cytotoxicity above 75% at 50 μg/mL; **: cytotoxicities below 75% at 50 μg/mL) | ** (cytotoxicities below 75% at 50 mg/mL)
COc1ccc(/C=C/C(=O)Nc2ccc(-c3nc4ccc([N+](=O)[O-])cc4n3O)cc2)c(OC)c1 [J] | < 4.60 | > 5.00 | ** (key: *: percent cytotoxicity above 75% at 50 μg/mL; **: cytotoxicities below 75% at 50 μg/mL) | * (percent cytotoxicities above 75% at 50 mg/mL)
COc1cc(F)ccc1C(=O)Nc1ccc(-c2nc3ccc([N+](=O)[O-])cc3n2O)cc1 [T] | > 5.00 | > 5.00 | ** (key: *: percent cytotoxicity above 75% at 50 μg/mL; **: cytotoxicities below 75% at 50 μg/mL) | * (percent cytotoxicities above 75% at 50 mg/mL)
N#Cc1ccc2nc(-c3ccc(NC(=O)/C=C/c4ccccc4)cc3)n(O)c2c1 [Compound A] | 4.60 to 5.00 | 4.60 to 5.00 | * (key: *: percent cytotoxicity above 75% at 50 μg/mL; **: cytotoxicities below 75% at 50 μg/mL) | * (percent cytotoxicities above 75% at 50 mg/mL)
O=C(/C=C/c1ccc(F)c(CP(=O)(O)O)c1)Nc1ccc(-c2nc3ccc([N+](=O)[O-])cc3n2O)cc1 [AM] | 4.60 to 5.00 | 4.60 to 5.00 | * (key: *: percent cytotoxicity above 75% at 50 μg/mL; **: cytotoxicities below 75% at 50 μg/mL) | * (percent cytotoxicities above 75% at 50 mg/mL)
N#Cc1ccc2nc(-c3ccc(NC(=O)c4ccc(F)cc4)cc3)n(O)c2c1 [K] | < 4.60 | 4.60 to 5.00 | * (key: *: percent cytotoxicity above 75% at 50 μg/mL; **: cytotoxicities below 75% at 50 μg/mL) | * (percent cytotoxicities above 75% at 50 mg/mL)
O=C(Nc1ccc(-c2nc3ccc([N+](=O)[O-])cc3n2O)c(F)c1)c1ccc(F)cc1 [AH] | 4.60 to 5.00 | 4.60 to 5.00 | * (key: *: percent cytotoxicity above 75% at 50 μg/mL; **: cytotoxicities below 75% at 50 μg/mL) | * (percent cytotoxicities above 75% at 50 mg/mL)
O=C(Nc1ccc(-c2nc3ccc([N+](=O)[O-])cc3n2O)cn1)c1ccc(F)cc1 [AJ] | 4.60 to 5.00 | 4.60 to 5.00 | * (key: *: percent cytotoxicity above 75% at 50 μg/mL; **: cytotoxicities below 75% at 50 μg/mL) | * (percent cytotoxicities above 75% at 50 mg/mL)
CC(=O)c1ccc(C(=O)Nc2ccc(-c3nc4ccc([N+](=O)[O-])cc4n3O)nc2)cc1 [AG] | < 4.60 | 4.60 to 5.00 | * (key: *: percent cytotoxicity above 75% at 50 μg/mL; **: cytotoxicities below 75% at 50 μg/mL) | * (percent cytotoxicities above 75% at 50 mg/mL)
O=C(/C=C/c1ccc(F)cc1)Nc1ccc(-c2nc3ccc([N+](=O)[O-])cc3n2O)nc1 [AO] | 4.60 to 5.00 | > 5.00 | * (key: *: percent cytotoxicity above 75% at 50 μg/mL; **: cytotoxicities below 75% at 50 μg/mL) | * (percent cytotoxicities above 75% at 50 mg/mL)
O=C(/C=C/c1ccc(F)cc1)Nc1ccc(-c2nc3ccc([N+](=O)[O-])cc3n2O)cn1 [AN] | > 5.00 | > 5.00 | * (key: *: percent cytotoxicity above 75% at 50 μg/mL; **: cytotoxicities below 75% at 50 μg/mL) | * (percent cytotoxicities above 75% at 50 mg/mL)
O=C(Nc1ccc(-c2nc3ccc([N+](=O)[O-])cc3n2O)cc1)/C(F)=C/c1ccccc1 [G] | 4.60 to 5.00 | > 5.00 | * (key: *: percent cytotoxicity above 75% at 50 μg/mL; **: cytotoxicities below 75% at 50 μg/mL) | ** (cytotoxicities below 75% at 50 mg/mL)
Cc1ccc(/C=C/C(=O)Nc2ccc(-c3nc4ccc(C#N)cc4n3O)cc2)cc1 [E] | 4.60 to 5.00 | > 5.00 | ** (key: *: percent cytotoxicity above 75% at 50 μg/mL; **: cytotoxicities below 75% at 50 μg/mL) | * (percent cytotoxicities above 75% at 50 mg/mL)
O=C(/C=C/c1ccc(F)cc1F)Nc1ccc(-c2nc3ccc([N+](=O)[O-])cc3n2O)cn1 [AQ] | > 5.00 | > 5.00 | * (key: *: percent cytotoxicity above 75% at 50 μg/mL; **: cytotoxicities below 75% at 50 μg/mL) | * (percent cytotoxicities above 75% at 50 mg/mL)
Cc1cc2nc(-c3ccc(NC(=O)c4ccc(-c5cnco5)cc4)cc3)n(O)c2cc1[N+](=O)[O-] [Compound BL, N-[4-(1-Hydroxy-5-methyl-6-nitro-1H-benzoimidazol-2-yl)-phenyl]-4-oxazol-5-yl-benzamide] | < 4.60 | > 5.00 | ** (key: *: percent cytotoxicity above 75% at 50 μg/mL; **: cytotoxicities below 75% at 50 μg/mL) | ** (cytotoxicities below 75% at 50 mg/mL)
N#Cc1ccc(C(=O)Nc2ccc(-c3nc4ccc(C#N)cc4n3O)cc2)cc1 [D] | > 5.00 | > 5.00 | ** (key: *: percent cytotoxicity above 75% at 50 μg/mL; **: cytotoxicities below 75% at 50 μg/mL) | * (percent cytotoxicities above 75% at 50 mg/mL)
O=C(/C=C/c1ccc(F)cc1)Nc1ccc(-c2nc3ccc([N+](=O)[O-])cc3n2O)c(F)c1 [AW] | > 5.00 | 4.60 to 5.00 | ** (key: *: percent cytotoxicity above 75% at 50 μg/mL; **: cytotoxicities below 75% at 50 μg/mL) | * (percent cytotoxicities above 75% at 50 mg/mL)
Cc1cc2nc(-c3ccc(NC(=O)/C=C/c4ccc(F)cc4)cc3)n(O)c2cc1[N+](=O)[O-] [Compound BC, (E)-3-(4-Fluoro-phenyl)-N-[4-(1-hydroxy-5-methyl-6-nitro-1H-benzoimidazol-2-yl)-phenyl]-acrylamide] | > 5.00 | > 5.00 | ** (key: *: percent cytotoxicity above 75% at 50 μg/mL; **: cytotoxicities below 75% at 50 μg/mL) | ** (cytotoxicities below 75% at 50 mg/mL)
COc1cc(NC(=O)/C=C/c2ccc(F)cc2)ccc1-c1nc2ccc([N+](=O)[O-])cc2n1O [BH] | 4.60 to 5.00 | 4.60 to 5.00 | * (key: *: percent cytotoxicity above 75% at 50 μg/mL; **: cytotoxicities below 75% at 50 μg/mL) | * (percent cytotoxicities above 75% at 50 mg/mL)
O=C(Nc1ccc(-c2nc3ccc([N+](=O)[O-])cc3n2O)cc1)c1ccc(F)c(F)c1 [P] | 4.60 to 5.00 | 4.60 to 5.00 | * (key: *: percent cytotoxicity above 75% at 50 μg/mL; **: cytotoxicities below 75% at 50 μg/mL) | * (percent cytotoxicities above 75% at 50 mg/mL)
CN(C)c1cc2nc(-c3ccc(NC(=O)/C=C/c4ccc(F)cc4)cc3)n(O)c2cc1[N+](=O)[O-] [Compound BN, N-[4-(5-Dimethylamino-1-hydroxy-6-nitro-1H-benzoimidazol-2-yl)-phenyl]-3-(4-fluorocinnamyl)-amide] | < 4.60 | 4.60 to 5.00 | ** (key: *: percent cytotoxicity above 75% at 50 μg/mL; **: cytotoxicities below 75% at 50 μg/mL) | ** (cytotoxicities below 75% at 50 mg/mL)
